Paper PMC3317655, “The Isolation and Characterization of β-Glucogallin as a Novel Aldose Reductase Inhibitor from Emblica officinalis” (PLoS ONE, 2012)

Columns and labels:
[1] = molecular target: T1, human aldose reductase (AKR1B1) (Homo sapiens, UniProt P15121); test: Purified recombinant enzyme, NADPH oxidation at […] nm, saturating glucose ([…]) as substrate; assay type: biochemical
[2] = molecular target: T1, human aldose reductase (AKR1B1); test: Ex vivo culture of transgenic mouse lenses expressing human AKR1B1; sorbitol accumulation at […] sorbinil; assay type: cell-based; details: read-out: % inhibition of sorbitol accumulation at 10 μM

Row | Structure (SMILES) | IC50 [1] [µM] | inhibition at 10 µM [2] [%]
1 | O=C(O[C@@H]1O[C@H](CO)[C@@H](O)[C@H](O)[C@H]1O)c1cc(O)c(O)c(O)c1 [β-glucogallin] | 17 ± 1 | –
2 | O=C1NC(=O)[C@@]2(CCOc3ccc(F)cc32)N1 [sorbinil] | – | 97
